Experimental data reported in ChEMBL document CHEMBL1201861, “Genomics of Drug Sensitity in Cancer screening data, Wellcome Trust Sanger Institute”.

Tests used:
Test in all cases: cells
Format in all cases: functional, cell-based
CP50-MEL-B = conditions: Homo sapiens;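 also: growth inhibition of the human cell line, measured with a cell viability read-out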
Description: SANGER: Inhibition of human CP50-MEL-B cell growth in a cell viability assay.

Ca-Ski = conditions: Homo sapiens;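 also: cell viability assay measuring inhibition of Ca-Ski cell growth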
Description: SANGER: Inhibition of human Ca-Ski cell growth in a cell viability assay.

CaR-1 = conditions: Homo sapiens;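 also: growth inhibition of human CaR-1 cancer cells, read out with a cell viability assay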
Description: SANGER: Inhibition of human CaR-1 cell growth in a cell viability assay.

DU-145 = conditions: Homo sapiens
Description: SANGER: Inhibition of human DU-145 cell growth in a cell viability assay.

DoTc2-4510 = conditions: Homo sapiens
HCC 2998 = conditions: Homo sapiens;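 also: growth inhibition of human HCC2998 cells, measured with a cell viability read-out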
Description: SANGER: Inhibition of human HCC2998 cell growth in a cell viability assay.

HCC70 = conditions: Homo sapiens;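 also: cell viability assay measuring how strongly the compound suppresses proliferation of HCC70 cells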
Description: SANGER: Inhibition of human HCC70 cell growth in a cell viability assay.

HOP-92 = conditions: Homo sapiens;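 also: cell viability readout, with IC50 reflecting inhibition of HOP-92 cell growth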
Description: SANGER: Inhibition of human HOP-92 cell growth in a cell viability assay.

HSC-3 = conditions: Homo sapiens
Description: SANGER: Inhibition of human HSC-3 cell growth in a cell viability assay.

HT-1376 = conditions: Homo sapiens
Description: SANGER: Inhibition of human HT-1376 cell growth in a cell viability assay.

HT55 = conditions: Homo sapiens;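 also: cell viability readout measuring growth inhibition of human HT55 cells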
Description: SANGER: Inhibition of human HT55 cell growth in a cell viability assay.

M059J = conditions: Homo sapiens;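 also: growth inhibition of M059J cells, read out with a cell viability assay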
Description: SANGER: Inhibition of human M059J cell growth in a cell viability assay.

M14 = conditions: Homo sapiens;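 also: growth inhibition of M14 cells, read out with a cell viability assay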
Description: SANGER: Inhibition of human M14 cell growth in a cell viability assay.

MDA-MB-231 = conditions: Homo sapiens
Description: SANGER: Inhibition of human MDA-MB-231 cell growth in a cell viability assay.

ME-180 = conditions: Homo sapiens;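 also: cell viability assay measuring growth inhibition of ME-180 cells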
Description: SANGER: Inhibition of human ME-180 cell growth in a cell viability assay.

MKN-7 = conditions: Homo sapiens;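 also: growth inhibition of MKN-7 cells, read out with a cell viability assay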
Description: SANGER: Inhibition of human MKN7 cell growth in a cell viability assay.

NB12 = conditions: Homo sapiens;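 also: growth inhibition of human NB12 cells, read out by a cell viability assay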
Description: SANGER: Inhibition of human NB12 cell growth in a cell viability assay.

NCI-H1573 = conditions: Homo sapiens;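 also: growth inhibition of NCI-H1573 cells, read out with a cell viability assay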
Description: SANGER: Inhibition of human NCI-H1573 cell growth in a cell viability assay.

NCI-H1623 = conditions: Homo sapiens;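 also: cell viability assay used as the read-out for growth inhibition of NCI-H1623 cells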
Description: SANGER: Inhibition of human NCI-H1623 cell growth in a cell viability assay.

NCI-H2009 = conditions: Homo sapiens;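 also: cell viability assay measuring inhibition of NCI-H2009 cell growth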
Description: SANGER: Inhibition of human NCI-H2009 cell growth in a cell viability assay.

NCI-H2342 = conditions: Homo sapiens;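 also: growth inhibition of the cancer cell line, determined with a cell viability assay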
Description: SANGER: Inhibition of human NCI-H2342 cell growth in a cell viability assay.

NCI-H2405 = conditions: Homo sapiens;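 also: growth inhibition of the human cell line, read out with a cell viability assay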
Description: SANGER: Inhibition of human NCI-H2405 cell growth in a cell viability assay.

NCI-H28 = conditions: Homo sapiens;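 also: growth inhibition of human NCI-H28 cells, read out as cell viability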
Description: SANGER: Inhibition of human NCI-H28 cell growth in a cell viability assay.

NCI-H661 = conditions: Homo sapiens;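 also: cell viability assay read-out, IC50 being the concentration that inhibits growth of the cells by half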
Description: SANGER: Inhibition of human NCI-H661 cell growth in a cell viability assay.

NCI-N87 = conditions: Homo sapiens;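 also: growth inhibition of human NCI-N87 cells, read out with a cell viability assay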
Description: SANGER: Inhibition of human NCI-N87 cell growth in a cell viability assay.

NY = conditions: Homo sapiens
Description: SANGER: Inhibition of human NY cell growth in a cell viability assay.

OE19 = conditions: Homo sapiens;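 also: growth inhibition of OE19 cells, measured through a cell viability read-out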
Description: SANGER: Inhibition of human OE19 cell growth in a cell viability assay.

PA-1 = conditions: Homo sapiens;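 also: IC50 for suppression of PA-1 cell proliferation, determined with a cell viability read-out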
Description: SANGER: Inhibition of human PA-1 cell growth in a cell viability assay.

PANC-08-13 = conditions: Homo sapiens;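 also: cell growth inhibition, measured with a cell viability assay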
Description: SANGER: Inhibition of human PANC-08-13 cell growth in a cell viability assay.

RD = conditions: Homo sapiens
Description: SANGER: Inhibition of human RD cell growth in a cell viability assay.

RVH-421 = conditions: Homo sapiens
Description: SANGER: Inhibition of human RVH-421 cell growth in a cell viability assay.

SK-MEL-30 = conditions: Homo sapiens;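 also: growth inhibition of SK-MEL-30 cells, determined with a cell viability assay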
Description: SANGER: Inhibition of human SK-MEL-30 cell growth in a cell viability assay.

SK-MES-1 = conditions: Homo sapiens;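 also: growth inhibition of human SK-MES-1 cells, read out with a cell viability assay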
Description: SANGER: Inhibition of human SK-MES-1 cell growth in a cell viability assay.

SW1710 = conditions: Homo sapiens;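 also: growth inhibition of SW1710 cells, determined with a cell viability assay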
Description: SANGER: Inhibition of human SW1710 cell growth in a cell viability assay.

SW1990 = conditions: Homo sapiens;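 also: cell growth inhibition determined with a viability assay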
Description: SANGER: Inhibition of human SW1990 cell growth in a cell viability assay.

T98G = conditions: Homo sapiens;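 also: growth inhibition of T98G cells, read out by a cell viability assay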
Description: SANGER: Inhibition of human T98G cell growth in a cell viability assay.

CWR22R = conditions: Homo sapiens, 22Rv1;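 also: growth inhibition of 22Rv1 cells, read out with a cell viability assay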
Description: SANGER: Inhibition of human 22RV1 cell growth in a cell viability assay.

23132-87 = conditions: Homo sapiens
Description: SANGER: Inhibition of human 23132-87 cell growth in a cell viability assay.

C-33-A = conditions: Homo sapiens;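 also: cell viability assay measuring growth inhibition of C-33-A cells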
Description: SANGER: Inhibition of human C-33-A cell growth in a cell viability assay.

CAL-72 = conditions: Homo sapiens;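 also: cell viability assay measuring inhibition of proliferation in the CAL-72 cell line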
Description: SANGER: Inhibition of human CAL-72 cell growth in a cell viability assay.

UO-31 = conditions: Homo sapiens;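 also: cell viability assay measuring inhibition of cell growth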
Description: SANGER: Inhibition of human U031 cell growth in a cell viability assay.

UMC-11 = conditions: Homo sapiens;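 also: growth inhibition of UMC-11 cells, read out with a cell viability assay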
Description: SANGER: Inhibition of human UMC-11 cell growth in a cell viability assay.

VMRC-RCZ = conditions: Homo sapiens;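 also: growth inhibition measured with a cell viability assay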
Description: SANGER: Inhibition of human VMRC-RCZ cell growth in a cell viability assay.

WM-115 = conditions: Homo sapiens
Description: SANGER: Inhibition of human WM-115 cell growth in a cell viability assay.

YKG-1 = conditions: Homo sapiens;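 also: cell growth inhibition, read out with a viability assay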
Description: SANGER: Inhibition of human YKG-1 cell growth in a cell viability assay.

CHL-1 = conditions: Homo sapiens;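 also: cell growth inhibition, read out with a cell viability assay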
Description: SANGER: Inhibition of human CHL-1 cell growth in a cell viability assay.

NCI-H1993 = conditions: Homo sapiens;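 also: growth inhibition of the cancer cell line, assessed with a cell viability assay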
Description: SANGER: Inhibition of human NCI-H1993 cell growth in a cell viability assay.

RPMI-2650 = conditions: Homo sapiens
Description: SANGER: Inhibition of human RPMI-2650 cell growth in a cell viability assay.

For `NC(=O)c1ncn([C@@H]2O[C@H](COP(=O)(O)O)[C@@H](O)[C@H]2O)c1N`, the IC50 (CP50-MEL-B) was greater than 2000 µM, the IC50 (Ca-Ski) was greater than 2000 µM and the IC50 (CaR-1) was 1650 µM. For the same compound, the IC50 (DU-145) was greater than 2000 µM, the IC50 (DoTc2-4510) was 1250 µM and the IC50 (HCC 2998) was greater than 2000 µM. For the same compound, the IC50 (HCC70) was 1270 µM, the IC50 (HOP-92) was 1690 µM and the IC50 (HSC-3) was 259 µM. The IC50 (HT-1376) was greater than 2000 µM, the IC50 (HT55) was greater than 2000 µM and the IC50 (M059J) was greater than 2000 µM. The IC50 (M14) was 295 µM, the IC50 (MDA-MB-231) was greater than 2000 µM and the IC50 (ME-180) was 416 µM. For the same compound, the IC50 (MKN-7) was greater than 2000 µM, the IC50 (NB12) was greater than 2000 µM and the IC50 (NCI-H1573) was 353 µM. For the same compound, the IC50 (NCI-H1623) was greater than 2000 µM, the IC50 (NCI-H2009) was 1460 µM and the IC50 (NCI-H2342) was greater than 2000 µM. The IC50 (NCI-H2405) was greater than 2000 µM, the IC50 (NCI-H28) was 1040 µM and the IC50 (NCI-H661) was greater than 2000 µM. The IC50 (NCI-N87) was 1490 µM, the IC50 (NY) was 495 µM and the IC50 (OE19) was greater than 2000 µM. For the same compound, the IC50 (PA-1) was 856 µM, the IC50 (PANC-08-13) was 1300 µM and the IC50 (RD) was greater than 2000 µM. For the same compound, the IC50 (RVH-421) was greater than 2000 µM, the IC50 (SK-MEL-30) was greater than 2000 µM and the IC50 (SK-MES-1) was greater than 2000 µM. For the same compound, the IC50 (SW1710) was greater than 2000 µM, the IC50 (SW1990) was 1120 µM and the IC50 (T98G) was greater than 2000 µM. For the same compound, the IC50 (CWR22R) was greater than 2000 µM, the IC50 (23132-87) was greater than 2000 µM and the IC50 (C-33-A) was greater than 2000 µM. For the same compound, the IC50 (CAL-72) was 321 µM, the IC50 (UO-31) was 766 µM and the IC50 (UMC-11) was greater than 2000 µM. For the same compound, the IC50 (VMRC-RCZ) was greater than 2000 µM, the IC50 (WM-115) was greater than 2000 µM and the IC50 (YKG-1) was 552 µM. It also gave an IC50 (CHL-1) greater than 2000 µM.
With `CC(=O)c1c(C)c2cnc(Nc3ccc(N4CCNCC4)cn3)nc2n(C2CCCC2)c1=O` [PALBOCICLIB] the IC50 (CP50-MEL-B) was greater than 4 µM, the IC50 (Ca-Ski) was greater than 4 µM and the IC50 (CaR-1) was greater than 4 µM. For the same compound, the IC50 (DU-145) was 3.46 µM, the IC50 (DoTc2-4510) was greater than 4 µM and the IC50 (HCC 2998) was greater than 4 µM. For the same compound, the IC50 (HCC70) was greater than 4 µM, the IC50 (HOP-92) was 3.5 µM and the IC50 (HSC-3) was 0.966 µM. The IC50 (HT-1376) was greater than 4 µM, the IC50 (HT55) was greater than 4 µM and the IC50 (M059J) was greater than 4 µM. The IC50 (M14) was greater than 4 µM, the IC50 (MDA-MB-231) was 3.82 µM and the IC50 (ME-180) was greater than 4 µM. For the same compound, the IC50 (MKN-7) was greater than 4 µM, the IC50 (NB12) was greater than 4 µM and the IC50 (NCI-H1573) was 2.07 µM. For the same compound, the IC50 (NCI-H1623) was greater than 4 µM, the IC50 (NCI-H1993) was greater than 4 µM and the IC50 (NCI-H2342) was greater than 4 µM. For the same compound, the IC50 (NCI-H2405) was greater than 4 µM, the IC50 (NCI-H28) was greater than 4 µM and the IC50 (NCI-H661) was greater than 4 µM. It also gave an IC50 (NCI-N87) greater than 4 µM, an IC50 (NY) greater than 4 µM and an IC50 (OE19) greater than 4 µM. The IC50 (PA-1) was 0.51 µM, the IC50 (PANC-08-13) was greater than 4 µM and the IC50 (RD) was greater than 4 µM. It also gave an IC50 (RPMI-2650) greater than 4 µM, an IC50 (RVH-421) greater than 4 µM and an IC50 (SK-MEL-30) greater than 4 µM. It also gave an IC50 (SK-MES-1) of 2.62 µM, an IC50 (SW1710) of 2.07 µM and an IC50 (SW1990) greater than 4 µM. It also gave an IC50 (T98G) of 2.01 µM, an IC50 (CWR22R) of 1.68 µM and an IC50 (C-33-A) greater than 4 µM. For the same compound, the IC50 (CAL-72) was greater than 4 µM, the IC50 (UMC-11) was greater than 4 µM and the IC50 (VMRC-RCZ) was 3.36 µM. The IC50 (WM-115) was greater than 4 µM, the IC50 (YKG-1) was 1.81 µM and the IC50 (CHL-1) was greater than 4 µM.
For `Cn1c(=O)n(-c2ccc(C(C)(C)C#N)cc2)c2c3cc(-c4cnc5ccccc5c4)ccc3ncc21` [DACTOLISIB], the IC50 (CP50-MEL-B) was 0.0774 µM, the IC50 (Ca-Ski) was 0.156 µM and the IC50 (CaR-1) was 0.0682 µM. It also gave an IC50 (DU-145) greater than 2 µM, an IC50 (DoTc2-4510) of 1.07 µM and an IC50 (HCC 2998) of 0.118 µM. For the same compound, the IC50 (HCC70) was 0.409 µM, the IC50 (HOP-92) was 0.0265 µM and the IC50 (HSC-3) was 0.0122 µM. It also gave an IC50 (HT-1376) of 0.385 µM, an IC50 (HT55) of 1.31 µM and an IC50 (M059J) of 0.0636 µM. It also gave an IC50 (M14) of 0.06 µM, an IC50 (MDA-MB-231) of 0.105 µM and an IC50 (ME-180) of 0.0224 µM. The IC50 (MKN-7) was 0.124 µM, the IC50 (NB12) was 0.528 µM and the IC50 (NCI-H1573) was 0.0875 µM. The IC50 (NCI-H1623) was 0.0478 µM, the IC50 (NCI-H1993) was greater than 2 µM and the IC50 (NCI-H2342) was 0.59 µM. The IC50 (NCI-H2405) was 0.0549 µM, the IC50 (NCI-H28) was 0.0344 µM and the IC50 (NCI-H661) was 0.151 µM. The IC50 (NCI-N87) was 0.111 µM, the IC50 (NY) was 1.17 µM and the IC50 (OE19) was 0.341 µM. The IC50 (PA-1) was 0.0118 µM, the IC50 (PANC-08-13) was 0.058 µM and the IC50 (RD) was 0.0759 µM. The IC50 (RPMI-2650) was 0.0527 µM, the IC50 (RVH-421) was 0.0537 µM and the IC50 (SK-MEL-30) was 0.196 µM. The IC50 (SK-MES-1) was 0.0533 µM, the IC50 (SW1710) was 0.0187 µM and the IC50 (SW1990) was 0.109 µM. For the same compound, the IC50 (T98G) was 0.0299 µM, the IC50 (CWR22R) was 0.0491 µM and the IC50 (C-33-A) was 0.136 µM. It also gave an IC50 (CAL-72) of 0.293 µM, an IC50 (UO-31) of 0.0967 µM and an IC50 (UMC-11) of 0.458 µM. The IC50 (VMRC-RCZ) was 0.0156 µM, the IC50 (WM-115) was 0.0681 µM and the IC50 (YKG-1) was 0.053 µM. It also gave an IC50 (CHL-1) of 0.0155 µM.
Compound `CC[C@@]1(O)C(=O)OCc2c1cc1n(c2=O)Cc2cc3ccccc3nc2-1` [CAMPTOTHECIN] has an IC50 (CP50-MEL-B) of 0.0721 µM, an IC50 (Ca-Ski) of 0.00497 µM and an IC50 (CaR-1) of 0.00643 µM. The IC50 (DU-145) was greater than 0.1 µM, the IC50 (DoTc2-4510) was 0.00403 µM and the IC50 (HCC70) was 0.0455 µM. For the same compound, the IC50 (HOP-92) was 0.00879 µM, the IC50 (HSC-3) was 0.00302 µM and the IC50 (HT-1376) was greater than 0.1 µM. For the same compound, the IC50 (M059J) was 0.0041 µM, the IC50 (M14) was 0.00995 µM and the IC50 (ME-180) was 0.00269 µM. It also gave an IC50 (NB12) of 0.044 µM, an IC50 (NCI-H1623) of 0.000748 µM and an IC50 (NCI-H1993) greater than 0.1 µM. The IC50 (NCI-H2009) was 0.0681 µM, the IC50 (NCI-H2342) was greater than 0.1 µM and the IC50 (NCI-H2405) was 0.0585 µM. The IC50 (NCI-H28) was 0.0387 µM, the IC50 (NCI-H661) was 0.0136 µM and the IC50 (NCI-N87) was 0.00874 µM. For the same compound, the IC50 (NY) was greater than 0.1 µM, the IC50 (OE19) was greater than 0.1 µM and the IC50 (PA-1) was 0.000981 µM. For the same compound, the IC50 (PANC-08-13) was 0.0449 µM, the IC50 (RD) was 0.0157 µM and the IC50 (RPMI-2650) was 0.00222 µM. The IC50 (RVH-421) was 0.0715 µM, the IC50 (SK-MEL-30) was greater than 0.1 µM and the IC50 (SK-MES-1) was 0.0108 µM. It also gave an IC50 (SW1710) of 0.0336 µM, an IC50 (SW1990) of 0.0379 µM and an IC50 (T98G) of 0.0272 µM. The IC50 (CWR22R) was 0.00931 µM, the IC50 (23132-87) was 0.0195 µM and the IC50 (C-33-A) was 0.00648 µM. It also gave an IC50 (UO-31) of 0.0341 µM, an IC50 (UMC-11) greater than 0.1 µM and an IC50 (VMRC-RCZ) of 0.0473 µM. For the same compound, the IC50 (YKG-1) was 0.00545 µM and the IC50 (CHL-1) was 0.00609 µM.
